# Data from patent publication US10654819B2, “Processes for the preparation of 2,5-furandicarboxylic acid and intermediates and derivatives thereof” (Stora Enso Oyj, priority 2016, dated 2020).
# How the values were obtained:
# [1] = FDCA solubility characterization in candidate solvents (Example 1); type: physicochemical
# Description: Solvents were screened for the ability to dissolve FDCA. 10 ml of a candidate solvent was heated to a certain temperature and FDCA (Product No. F0710, TCI America) was added by small portions to the heated candidate solvent until the FDCA amount exceeded the solubility limit. After that, small volumes of solvent were added until the excess solids were completely dissolved. The experiment was repeated two times at each temperature and the average was taken as FDCA solubility. Five solvents were tested: (1) deionized water; (2) diglyme; (3) dioxane; (4) a 1:1 by volume mixture of diglyme with deionized water; and (5) a 4:1 by volume mixture of dioxane with deionized water. The results are depicted in FIG. 3 as a plot of FDCA Solubility (Weight %) as a function of temperature (° C.). […] However, when each of the organic solvents was combined with water, the resulting co-solvent appeared to provide a synergistic enhancement in FDCA solubilizing capability. […] Similarly, at 100° C., although FDCA solubility in water and dioxane individually was less than 1% (by weight) and less than 2% (by weight), respectively, the FDCA solubility trend line for the co-solvent system of 1:4 ratio of deionized water:dioxane, by volume, indicates 9% (by weight) FDCA solubility.
# [2] = FDCA solubility studies in various solvent compositions, visual inspection of dissolution (Example 23); type: physicochemical
# Description: A series of samples containing various amounts of FDCA and mixed solvent compositions were prepared in sealed pressure ampules (typically containing 2-5 g material (FDCA and solvent composition)). For example, 200 mg FDCA, 900 mg NMP, and 900 mg de-ionized water were added to an 8 mL glass vial with a stir bar inside, corresponding to a mixture containing 10 wt % FDCA. Other samples corresponding to different wt % FDCA samples in various mixed solvent compositions were prepared in a similar manner. […] The reported FDCA solubility in Table 11 represents the maximum wt % FDCA that can be dissolved in the given solvent composition using this testing method.
smiles,measurement,setting,value
"O=C(O)c1ccc(C(=O)O)o1 [FDCA, 2,5-furandicarboxylic acid]",FDCA solubility,"[1]; in 1:1 deionized water:diglyme by volume, 100° C.",9 % (by weight)
same,FDCA solubility,"[1]; in 1:4 deionized water:dioxane by volume, 100° C., from trend line",9 % (by weight)
same,FDCA solubility,"[1]; in diglyme, 22° C. to 100° C.",less than 2 % by weight
same,FDCA solubility,"[1]; in diglyme, 100° C.",less than 2 % (by weight)
same,FDCA solubility,"[1]; in dioxane, 22° C. to 100° C.",less than 2 % by weight
same,FDCA solubility,"[1]; in dioxane, 100° C.",less than 2 % (by weight)
same,FDCA solubility,"[1]; in water, 22° C. to 140° C.",less than 2 % by weight
same,FDCA solubility,"[1]; in water, 100° C.",less than 1 % (by weight)
same,FDCA solubility,"[2]; Bu^tOH 50 wt. % / H2O 50 wt. %, 100 ° C.",7.0 wt. %
same,FDCA solubility,"[2]; Bu^tOH 75 wt. % / H2O 25 wt. %, 100 ° C.",7.5 wt. %
same,FDCA solubility,"[2]; MEK 25 wt. % / H2O 75 wt. %, 100 ° C.",5.5 wt. %
same,FDCA solubility,"[2]; MEK 90 wt. % / H2O 10 wt. %, 100 ° C.",4.0 wt. %
same,FDCA solubility,"[2]; NMP 20 wt. % / H2O 80 wt. %, 23 ° C.",0.3 wt. %
same,FDCA solubility,"[2]; NMP 20 wt. % / H2O 80 wt. %, 100 ° C.",4.0 wt. %
same,FDCA solubility,"[2]; NMP 20 wt. % / H2O 80 wt. %, 120 ° C.",7.5 wt. %
same,FDCA solubility,"[2]; NMP 35 wt. % / H2O 65 wt. %, 23 ° C.",0.5 wt. %
same,FDCA solubility,"[2]; NMP 35 wt. % / H2O 65 wt. %, 100 ° C.",9.0 wt. %
same,FDCA solubility,"[2]; NMP 35 wt. % / H2O 65 wt. %, 120 ° C.",13.5 wt. %
same,FDCA solubility,"[2]; NMP 50 wt. % / H2O 50 wt. %, 100 ° C.",14.5 wt. %
same,FDCA solubility,"[2]; NMP 50 wt. % / H2O 50 wt. %, 120 ° C.",19.5 wt. %
same,FDCA solubility,"[2]; gamma-valerolactone 25 wt. % / H2O 75 wt. %, 100 ° C.",4.0 wt. %
same,FDCA solubility,"[2]; gamma-valerolactone 50 wt. % / H2O 50 wt. %, 100 ° C.",7.0 wt. %
same,FDCA solubility,"[2]; gamma-valerolactone 75 wt. % / H2O 25 wt. %, 100 ° C.",6.5 wt. %
